Test results from publication PMC2932657 (Chemistry & biology, 2010).

Molecular target: PimD (Streptomyces natalensis, UniProt Q9EW92)
Experiment: UV-visible difference spectrophotometric titration
Assay type: binding

Kd: 4 µM
Structure (SMILES): C[C@@H]1C/C=C/C=C/C=C/C=C/[C@H](O[C@@H]2O[C@H](C)[C@@H](O)[C@H](N)[C@@H]2O)C[C@@H]2O[C@](O)(C[C@@H](O)C/C=C/C=C/C(=O)O1)C[C@H](O)[C@H]2C(=O)O [4,5-desepoxypimaricin]
